“Also recorded” adds a separate entry of the source.
Experiments:
Type in all cases: cell-based, human
[1] = MTT cytotoxicity assay in hRPTECs; conditions: human, hRPTECs (passage 2); 72 h incubation; Mean ± Standard deviation, n = 3
Experimental: (§1) For the MTT assay, the medium was then removed, the dried crystals were resuspended in 60 μL of Dimethyl sulfoxide (DMSO), and the absorbance was read at 570 nm. For the resazurin assay, the fluorescence intensity was read using a PolarStar Omega plate reader (BMG Labtech; Mornington VIC, Australia) at excitation/emission 560/590 nm. All assays were performed at least three times. […] La Jolla, CA). Both MTT and resazurin assays were performed three times, with two technical replicates in each assay.

[2] = Resazurin cytotoxicity assay in HK-2 cells; conditions: human, HK-2 cells; 72 h incubation; Mean ± Standard deviation, n = 3
Experimental: as §1

NGAL [3] = assay: NGAL protein ELISA in hRPTECs; design: key to Upregulation of NGAL hRPTECs P: +: statistically significant increase; −: no significant increase; conditions: for NGAL protein in hRPTEC culture medium: 24 h
Experimental: (§2) HK-2 cells (ATCC CRL-2190; Manassas, VA) were maintained in DMEM/F12 (Life Technologies; Sydney, NSW, Australia) supplemented with 5 μg/mL insulin, 5 μg/mL transferrin, 5 ng/mL sodium selenite (ITS; Roche; […] (passage 2) and culture kits were purchased from Lonza. […] were maintained in Renal Epithelial Cell BulletKitTM (CC-3190, Lonza) at 37°C and 5% CO2 atmosphere. Cells were passaged to 96-well plates with a density of 4000 cells/well. After 24 h culture, compounds with different concentration series were added into each well and incubated for 4, 24, 48, and 72 h. KIM-1 (DY1750), NGAL (DY1757), and M-CSF (DY216) Duo-Set® ELISA kits were purchased from R&D systems (Minneapolis, MN). Sandwich-ELISA experiments were conducted following the manufacturer's instructions with slight modifications. A 96-well microplate (MaxiSorp®, Nunc, Thermo Scientific, NSW, Australia) was coated with 100 μL of capture antibodies (diluted 1:200 in PBS) and incubated overnight. The plate was then washed twice with washing buffer (0.05% Tween 20 in PBS, pH 7.4) and blocked by adding 300 μL of blocking buffer (1% bovine serum albumin (BSA) in PBS) for 1 h at room temperature. After washing two times with PBS, 100 μL of samples (cell culture media or cell lysates) or standards were then added to each well and incubated for 2 h at room temperature. The biotinylated detection antibodies were then diluted in blocking buffer, added to each well and incubated for 2 h. Horseradish peroxidase (HRP)-labeled streptavidin (100 μL) was then added to bind to detection antibodies. To each well, 100 μL of substrate solution (1:1 mixture of H2O2 and tetramethylbenzidine) was added and incubated for 20 min before reaction termination with 50 μL of stop solution (2N H2SO4). The optical density of each well was measured at 450 nm using a POLARstar Omega plate reader (BMG Labtech). All assays were performed at least three times, with at least two technical replicates in each assay.

NGAL mRNA [4] = assay: NGAL mRNA qRT-PCR in hRPTECs; design: key to Upregulation of NGAL hRPTECs R: +: statistically significant increase; −: no significant increase
Experimental: (§3) HK-2 cells (ATCC CRL-2190; Manassas, VA) were maintained in DMEM/F12 (Life Technologies; Sydney, NSW, Australia) supplemented with 5 μg/mL insulin, 5 μg/mL transferrin, 5 ng/mL sodium selenite (ITS; Roche; […] (passage 2) and culture kits were purchased from Lonza. […] were maintained in Renal Epithelial Cell BulletKitTM (CC-3190, Lonza) at 37°C and 5% CO2 atmosphere. Cells were passaged to 96-well plates with a density of 4000 cells/well. After 24 h culture, compounds with different concentration series were added into each well and incubated for 4, 24, 48, and 72 h. HK-2 and […] were treated with compounds for 4, 24, 48, and 72 h, then the cells were lysed and the RNA reverse transcribed with the TaqMan® Gene Expression Cells-to-CTTM Kit (Life Technologies) according to the manufacturer's instructions. […] Hs00273334_m1), Lcn2 (NGAL; Hs01008571_m1), and Csf1 (M-CSF; Hs00174164_m1). All probes span an exon-exon junction. The real-time quantitative reverse transcription PCR (qRT-PCR) was performed in a 10 μl final reaction mixture using a ViiA 7TM system (Applied Biosystems®, Sydney, NSW, Australia) based on the following thermo cycling conditions: 10 min at 95°C for one cycle, 15 sec at 95°C, 60 sec at 60°C for 40 cycles. The ViiA 7TM software was used for data analysis with Hprt1 expression used for normalization. All assays were performed at least three times, with at least two technical replicates in each assay.

[5] = MTT cytotoxicity assay in HK-2 cells; conditions: human, HK-2 cells; 72 h incubation; Mean ± Standard deviation, n = 3
Experimental: as §1

NGAL [6] = assay: NGAL protein ELISA in HK-2 cells; design: key: +: statistically significant increase; −: no significant increase; conditions: protein levels in culture medium; 72 h time point
Experimental: as §2

KIM-1 mRNA [7] = assay: KIM-1 mRNA qRT-PCR in HK-2 cells; design: key to Upregulation of KIM-1 HK-2 R: +: statistically significant increase; −: no significant increase
Experimental: as §3

KIM-1 mRNA [8] = assay: KIM-1 mRNA qRT-PCR in hRPTECs; design: key to Upregulation of KIM-1 hRPTECs R: +: statistically significant increase; −: no significant increase
Experimental: as §3

NGAL mRNA [9] = assay: NGAL mRNA qRT-PCR in HK-2 cells; design: key to Upregulation of NGAL HK-2 R: +: statistically significant increase; −: no significant increase; conditions: mRNA levels; 72 h time point
Experimental: as §3

KIM-1 [10] = assay: KIM-1 protein ELISA in HK-2 cells; design: key: +: statistically significant increase; −: no significant increase; conditions: protein levels in culture medium; 72 h time point
Experimental: as §2

KIM-1 [11] = assay: KIM-1 protein ELISA in hRPTECs; design: key to Upregulation of KIM-1 hRPTECs P: +: statistically significant increase; −: no significant increase
Experimental: as §2

[12] = Resazurin cytotoxicity assay in hRPTECs; conditions: human, hRPTECs (passage 2); 72 h incubation; Mean ± Standard deviation, n = 3
Experimental: as §1

M-CSF mRNA = M-CSF mRNA qRT-PCR in hRPTECs; conditions: 72 h (Fig.4C)
Experimental: Hs00273334_m1), Lcn2 (NGAL; Hs01008571_m1), and Csf1 (M-CSF; Hs00174164_m1). All probes span an exon-exon junction. The real-time quantitative reverse transcription PCR (qRT-PCR) was performed in a 10 μl final reaction mixture using a ViiA 7TM system (Applied Biosystems®, Sydney, NSW, Australia) based on the following thermo cycling conditions: 10 min at 95°C for one cycle, 15 sec at 95°C, 60 sec at 60°C for 40 cycles. The ViiA 7TM software was used for data analysis with Hprt1 expression used for normalization. All assays were performed at least three times, with at least two technical replicates in each assay.

[13] = protein levels in culture medium, 72 h time point

Structure (SMILES) | CC50 at 72 h [1] | CC50 at 72 h [2] | NGAL protein in hRPTEC culture medium (NGAL [3]) | Upregulation of NGAL hRPTECs P (NGAL [3]; [13]) | Upregulation of NGAL hRPTECs R (NGAL mRNA [4]; mRNA levels, 72 h time point) | CC50 at 72 h [5] | Upregulation of NGAL HK-2 P (NGAL [6]) | Upregulation of KIM-1 HK-2 R (KIM-1 mRNA [7]; mRNA levels, 72 h time point) | Upregulation of KIM-1 hRPTECs R (KIM-1 mRNA [8]; mRNA levels, 72 h time point) | Upregulation of NGAL HK-2 R (NGAL mRNA [9]) | Upregulation of KIM-1 HK-2 P (KIM-1 [10]) | KIM-1 protein upregulation in hRPTECs (KIM-1 [11]; 4 h, culture medium (Fig. S5A)) | Upregulation of KIM-1 hRPTECs P (KIM-1 [11]; [13]) | CC50 at 72 h [12] | M-CSF mRNA levels in hRPTECs (M-CSF mRNA) | NGAL mRNA levels in hRPTECs (NGAL mRNA [4]; 72 h exposure, 1 μmol/L (high dose), P < 0.001) | KIM-1 mRNA transcription level in HK-2 cells (KIM-1 mRNA [7]; 72 h, P < 0.005) | KIM-1 mRNA in hRPTECs (KIM-1 mRNA [8]; 72 h, high dose)
C[C@@H]1[C@H](O)[C@@H](C)/C=C/C=C/C=C/C=C/C=C/C=C/C=C/[C@H](O[C@@H]2O[C@H](C)[C@@H](O)[C@H](N)[C@@H]2O)C[C@@H]2O[C@](O)(C[C@@H](O)C[C@@H](O)[C@H](O)CC[C@@H](O)C[C@@H](O)CC(=O)O[C@H]1C)C[C@H](O)[C@H]2C(=O)O [AmB, amphotericin B] | > 50 µM | 20 ± 3 µM | increases | + | − | > 50 µM | − | − | − | − | − | significant upregulation | + | 6 ± 1 µM |  |  |  | 
COc1cccc2c1C(=O)c1c(O)c3c(c(O)c1C2=O)C[C@@](O)(C(=O)CO)C[C@@H]3O[C@H]1C[C@H](N)[C@H](O)[C@H](C)O1 [Doxorubicin, doxorubicin] | > 50 µM | 2.1 ± 1 µM | increases |  |  | > 50 µM |  |  |  |  |  |  |  | 5.2 ± 1 µM | significant results; also recorded: significant induction | kept rising; also recorded: significant induction | increased | stimulation; also recorded: significant induction

Reference: article PMC4492764, “Evaluation of biomarkers for in vitro prediction of drug-induced nephrotoxicity: comparison of HK-2, immortalized human proximal tubule epithelial, and primary cultures of human proximal tubular cells” (Pharmacology Research & Perspectives, 2015)
